ChEMBL document CHEMBL1201862, “PubChem BioAssay data set” (2004)
“And” between values parts separate entries of the source, which are not always exact repeats. Equal values may be shown once.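 The compound was tested at five concentrations on cells cultured in 96-well plates, with a 48-hour exposure period. GI50 marks 50% less growth.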 The source made the active and inactive calls. No stated cut-off is given here; in the data, active = GI50 up to about 1.1 µM and inactive = higher.

Tests used:
Test in all cases: inhibition of tumour cell growth, NCI panel, 48 h
A498 = tested on: A498
ACHN = tested on: ACHN
CAKI-1 = tested on: CAKI-1
COLO 205 = tested on: COLO 205
HCT-15 = tested on: HCT-15
HOP-92 = tested on: HOP-92
M14 = tested on: M14
MDA-MB-231 = tested on: MDA-MB-231
MDA-MB-435 = tested on: MDA-MB-435
Malme-3M = tested on: Malme-3M
NCI-H226 = tested on: NCI-H226
NCI-H522 = tested on: NCI-H522
OVCAR-3 = tested on: OVCAR-3
OVCAR-4 = tested on: OVCAR-4
RXF 393 = tested on: RXF 393
SK-OV-3 = tested on: SK-OV-3
SNB-19 = tested on: SNB-19
SNB-75 = tested on: SNB-75
UACC-257 = tested on: UACC-257

Row | SMILES | GI50 (A498) | GI50 (ACHN) | GI50 (CAKI-1) | GI50 (COLO 205) | GI50 (HCT-15) [µM] | GI50 (HOP-92) | GI50 (M14) | GI50 (MDA-MB-231) | GI50 (MDA-MB-435) | GI50 (Malme-3M) | GI50 (NCI-H226) | GI50 (NCI-H522) | GI50 (OVCAR-3) | GI50 (OVCAR-4) | GI50 (RXF 393) | GI50 (SK-OV-3) | GI50 (SNB-19) | GI50 (SNB-75) | GI50 (UACC-257)
1 | NC(Cc1cc(Br)c(O)c(Br)c1)C(=O)O (centres undefined) | > 100 µM (inactive) | > 100 µM (inactive) | > 100 µM (inactive) | > 100 µM (inactive) | > 100 | > 100 µM (inactive) | > 100 µM (inactive) | > 100 µM (inactive) | > 100 µM (inactive) | > 100 µM (inactive) | > 100 µM (inactive) | > 100 µM (inactive) | > 100 µM (inactive) | > 100 µM (inactive) | > 100 µM (inactive) | > 100 µM (inactive) | > 100 µM (inactive) | > 100 µM (inactive) | > 100 µM (inactive)
2 | O=C(O)CSCC(=O)O | > 100 µM (inactive) | > 100 µM (inactive) | > 100 µM (inactive) | – | > 100 | > 100 µM (inactive) | > 100 µM (inactive) | > 100 µM (inactive) | > 100 µM (inactive) | > 100 µM (inactive) | > 100 µM (inactive) | > 100 µM (inactive) | > 100 µM (inactive) | > 100 µM (inactive) | > 100 µM (inactive) | – | > 100 µM (inactive) | > 100 µM (inactive) | > 100 µM (inactive)
3 | O=c1[nH]c2cc([N+](=O)[O-])c(Nc3c4ccccc4nc4ccccc34)c([N+](=O)[O-])c2[nH]1 | 2.08 µM (inactive) | 1.98 µM (inactive) | 2.19 µM (inactive) | 2.1 µM (inactive) | 2.58 | 2.48 µM (inactive) | 2.12 µM (inactive) | 3.21 µM (inactive) | 2.77 µM (inactive) | 1.77 µM (inactive) | 3.13 µM (inactive) | 1.46 µM (inactive) | 2.58 µM (inactive) | 3.07 µM (inactive) | 2.42 µM (inactive) | 4.04 µM (inactive) | 5.02 µM (inactive) | 3.68 µM (inactive) | 4.03 µM (inactive)
4 | C1=N\CCNCCNCC/N=C\c2ccc(cc2)OCc2cccc(n2)COc2ccc/1cc2 | > 100 µM (inactive) | > 100 µM (inactive) | > 100 µM (inactive) | > 100 µM (inactive) | > 100 | > 100 µM (inactive) | > 100 µM (inactive) | > 100 µM (inactive) | 75.2 µM (inactive) | > 100 µM (inactive) | > 100 µM (inactive) | – | > 100 µM (inactive) | 68.5 µM (inactive) | > 100 µM (inactive) | > 100 µM (inactive) | > 100 µM (inactive) | 47.1 µM (inactive) | 88.5 µM (inactive)
5 | S=c1nc(N/N=C/c2cccs2)c2cn[nH]c2[nH]1 | 4.02 µM (inactive) | 26.8 µM (inactive) | 14.8 µM (inactive) | 6.87 µM (inactive) | 19.5 | 52.6 µM (inactive) | 33.4 µM (inactive) | 28.1 µM (inactive) | 16.3 µM (inactive) | 41.4 µM (inactive) | 92 µM (inactive) | 27.3 µM (inactive) | 9.25 µM (inactive) | 31.5 µM (inactive) | 16.1 µM (inactive) | > 100 µM (inactive) | 58.2 µM (inactive) | 97.7 µM (inactive) | 35.7 µM (inactive)
6 | N#C/C(C(=S)Nc1ccccc1)=C(/N)N1CCCC1 | > 100 µM (inactive) | > 100 µM (inactive) | 27.9 µM (inactive) | > 100 µM (inactive) | > 100 | 62.5 µM (inactive) | > 100 µM (inactive) | > 100 µM (inactive) | > 100 µM (inactive) | > 100 µM (inactive) | > 100 µM (inactive) | > 100 µM (inactive) | > 100 µM (inactive) | > 100 µM (inactive) | > 100 µM (inactive) | – | > 100 µM (inactive) | – | > 100 µM (inactive)
7 | CCCNC(=S)N/C=C1\C(=O)Nc2ccccc2C1=O | > 100 µM (inactive) | > 100 µM (inactive) | > 100 µM (inactive) | > 100 µM (inactive) | > 100 | > 100 µM (inactive) | > 100 µM (inactive) | > 100 µM (inactive) | > 100 µM (inactive) | – | > 100 µM (inactive) | > 100 µM (inactive) | > 100 µM (inactive) | > 100 µM (inactive) | > 100 µM (inactive) | > 100 µM (inactive) | > 100 µM (inactive) | 83.2 µM (inactive) | > 100 µM (inactive)
8 | CCOC(=O)C(C(=O)OCC)=C1SC(=N\c2ccccc2)/C(=N/c2ccccc2)N1c1ccccc1 | > 100 µM (inactive) | 64 µM (inactive) | > 100 µM (inactive) | > 100 µM (inactive) | > 100 | 54 µM (inactive) | – | > 100 µM (inactive) | > 100 µM (inactive) | > 100 µM (inactive) | > 100 µM (inactive) | 76.6 µM (inactive) | 35.8 µM (inactive) | – | 28.2 µM (inactive) | > 100 µM (inactive) | > 100 µM (inactive) | > 100 µM (inactive) | –
9 | Cc1cccc(/N=C/C=C(\Cl)c2ccc3ccccc3c2)c1 | > 100 µM (inactive) | 16.4 µM (inactive) | 17.2 µM (inactive) | 17.9 µM (inactive) | 11.7 | 24.1 µM (inactive) | 17.1 µM (inactive) | 15.9 µM (inactive) | 18.1 µM (inactive) | 17.1 µM (inactive) | 34.1 µM (inactive) | 32.6 µM (inactive) | 15 µM (inactive) | 11.2 µM (inactive) | 15.6 µM (inactive) | 23.4 µM (inactive) | 13.9 µM (inactive) | > 39.3 µM (inactive) | 15.7 µM (inactive)
10 | O=C1N/C(=N/N=C\C(O)C(O)C(O)CO)N/C1=C/c1ccc(Cl)cc1 (centres undefined) | 49.7 µM (inactive) and 39.8 µM (inactive) | 18.1 µM (inactive) and 17.8 µM (inactive) | 57 µM (inactive) and 47 µM (inactive) | 42.6 µM (inactive) and 30.1 µM (inactive) | 20.6 | 17 µM (inactive) and 32.1 µM (inactive) | 25.9 µM (inactive) | 58.5 µM (inactive) and 44.6 µM (inactive) | 59.4 µM (inactive) and 43.8 µM (inactive) | 20.9 µM (inactive) and 17 µM (inactive) | 21 µM (inactive) and 22.2 µM (inactive) | 22.5 µM (inactive) and 20.4 µM (inactive) | 21.6 µM (inactive) and 17.2 µM (inactive) | 20.7 µM (inactive) | 92 µM (inactive) | 63.5 µM (inactive) | 27 µM (inactive) and 29 µM (inactive) | 41.5 µM (inactive) and 32.9 µM (inactive) | > 100 µM (inactive)
11 | COc1cc2c(cc1O)-c1c(OC)c(O)cc3c1C(C2)N(C)CC3 (centres undefined) | > 100 µM (inactive) | > 100 µM (inactive) | > 100 µM (inactive) | > 100 µM (inactive) | > 100 | > 100 µM (inactive) | > 100 µM (inactive) | > 100 µM (inactive) | > 100 µM (inactive) | – | > 100 µM (inactive) | > 100 µM (inactive) | > 100 µM (inactive) | > 100 µM (inactive) | > 100 µM (inactive) | > 100 µM (inactive) | > 100 µM (inactive) | > 100 µM (inactive) | > 100 µM (inactive)
12 | COc1ccc(O)c(/C=N\Nc2ccccc2)c1 | 15.5 µM (inactive) | 7.85 µM (inactive) | – | 10.6 µM (inactive) | 8.65 | 14 µM (inactive) | 19 µM (inactive) | 7.03 µM (inactive) | 3.67 µM (inactive) | – | 20.6 µM (inactive) | 2.32 µM (inactive) | – | 8.45 µM (inactive) | 84.3 µM (inactive) | > 100 µM (inactive) | 30.8 µM (inactive) | 49.9 µM (inactive) | 16.7 µM (inactive)
13 | CC(=O)Oc1ccc(/C=C/C(=O)O[C@H]2CCCC[C@@H]2OC(=O)/C=C/c2ccc(OC(C)=O)c(OC(C)=O)c2)cc1OC(C)=O | 18.5 µM (inactive) | 5.83 µM (inactive) | 5.41 µM (inactive) | 16.7 µM (inactive) | 5.13 | 4.62 µM (inactive) | 7.14 µM (inactive) | 17 µM (inactive) | 10.4 µM (inactive) | 15.6 µM (inactive) | – | 2.81 µM (inactive) | 4.74 µM (inactive) | 7.08 µM (inactive) | 11.1 µM (inactive) | 11.8 µM (inactive) | 4.71 µM (inactive) | 9.46 µM (inactive) | 11.8 µM (inactive)
14 | COc1cc2cc(C(=O)N3CC(COS(C)(=O)=O)c4c3cc(N)c3ccccc43)[nH]c2c(OC)c1OC (centres undefined) | 0.0219 µM (active) | < 0.01 µM (active) | 0.0211 µM (active) | 0.0244 µM (active) | < 0.0206 | < 0.0266 µM (active) | 0.0169 µM (active) | < 0.01 µM (active) | 0.0152 µM (active) | – | 0.0469 µM (active) | 0.0146 µM (active) | 0.0404 µM (active) | < 0.0376 µM (active) | 0.0177 µM (active) | 0.0444 µM (active) | < 0.0491 µM (active) | < 0.01 µM (active) | 0.0209 µM (active)
15 | COC(=O)NCCc1n[nH]c2c1C(=O)C=C(Nc1ccccc1)C2=O | 47.2 µM (inactive) | 32.4 µM (inactive) | 46.1 µM (inactive) | 16.8 µM (inactive) | 22.4 | 27.7 µM (inactive) | 33.4 µM (inactive) | 25.9 µM (inactive) | 17 µM (inactive) | 12.7 µM (inactive) | – | 13.5 µM (inactive) | 3.72 µM (inactive) | 15.4 µM (inactive) | 41.2 µM (inactive) | 74.6 µM (inactive) | 28 µM (inactive) | 57.3 µM (inactive) | 16.7 µM (inactive)
